Measured values published in patent US20230085307A1, “PYRIDAZINONE COMPOUND AND HERBICIDE” (NISSAN CHEMICAL CORPORATION, priority 2019, published 2023).

Assays:
redroot pigweed = assay: Test Example 4: herbicidal effect by soil treatment (Table 19, symbol N); type: in vivo, redroot pigweed (Amaranthus retroflexus); settings: amount of applied herbicide 320 g/ha
Summary of the method: (§1)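 Emulsion of test compound, water-diluted to predetermined amount, sprayed on soil after sowing (seed depth ~1.5 cm, sterilized diluvial soil). Greenhouse, 25–30° C. Effect graded at three weeks post-spray.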

barnyard grass [1] = assay: Test Example 4: herbicidal effect by soil treatment (Table 19, symbol H); type: in vivo, barnyard grass (Echinochloa crus-galli); settings: amount of applied herbicide 320 g/ha
Summary of the method: as §1

blackgrass [2] = assay: Test Example 5: herbicidal effect by foliage application, plastic box (Table 20, symbol J); type: in vivo, blackgrass (Alopecurus myosuroides); settings: foliage application, 320 g/ha, three weeks after application
Summary of the method: (§2)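 Post-emergence foliar test in sterilized diluvial soil. Compound applied as water-diluted emulsion at a predetermined rate to 14-day-old plants; evaluation at three weeks.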

blackgrass [3] = assay: Test Example 4: herbicidal effect by soil treatment (Table 19, symbol J); type: in vivo, blackgrass (Alopecurus myosuroides); settings: amount of applied herbicide 320 g/ha
Summary of the method: as §1

persian speedwell [4] = assay: Test Example 5: herbicidal effect by foliage application, plastic box (Table 20, symbol R); type: in vivo, Persian speedwell (Veronica persica); settings: foliage application, 320 g/ha, three weeks after application
Summary of the method: as §2

velvetleaf [5] = assay: Test Example 5: herbicidal effect by foliage application, plastic box (Table 20, symbol M); type: in vivo, velvetleaf (Abutilon theophrasti); settings: foliage application, 320 g/ha, three weeks after application
Summary of the method: as §2

persian speedwell [6] = assay: Test Example 4: herbicidal effect by soil treatment (Table 19, symbol R); type: in vivo, Persian speedwell (Veronica persica); settings: amount of applied herbicide 320 g/ha
Summary of the method: as §1

Chinese sprangletop = assay: Test Example 3: herbicidal effect by foliage application, Wagner pot (Table 18, symbol D); type: in vivo, chinese sprangletop (Leptochloa chinensis); settings: 320 g/ha
Summary of the method: (§3)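 Plants were sown in alluvial soil held under 0.1–0.5 cm standing water and grown 14 days in a greenhouse at 25–30 °C. An emulsifiable formulation, water-diluted to the set dose, was then sprayed onto the foliage, and effects were scored three weeks later using previously defined criteria.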

lambsquarters [7] = assay: Test Example 4: herbicidal effect by soil treatment (Table 19, symbol O); type: in vivo, lambsquarters (Chenopodium album); settings: amount of applied herbicide 320 g/ha
Summary of the method: as §1

windgrass [8] = assay: Test Example 5: herbicidal effect by foliage application, plastic box (Table 20, symbol L); type: in vivo, windgrass (Apera spica-venti); settings: foliage application, 320 g/ha, three weeks after application
Summary of the method: as §2

oval-leafed pondweed = assay: Test Example 1: herbicidal activity, application before weed generation under submerged conditions (Table 16, symbol C); type: in vivo, oval-leafed pondweed (Monochoria vaginalis); settings: amount of applied herbicide 320 g/ha
Summary of the method: (§4)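 Alluvial soil was flooded to 4 cm depth, weed seeds were sown mixed and 2.5-leaf rice seedlings were transplanted. On sowing day, the compound's emulsion, diluted in water to a set dose, was applied to the water surface. Plants grew at 25–30 °C and were scored 0–5 after three weeks.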

lambsquarters [9] = assay: Test Example 5: herbicidal effect by foliage application, plastic box (Table 20, symbol O); type: in vivo, lambsquarters (Chenopodium album); settings: foliage application, 320 g/ha, three weeks after application
Summary of the method: as §2

windgrass [10] = assay: Test Example 4: herbicidal effect by soil treatment (Table 19, symbol L); type: in vivo, windgrass (Apera spica-venti); settings: amount of applied herbicide 320 g/ha
Summary of the method: as §1

chickweed = assay: Test Example 4: herbicidal effect by soil treatment (Table 19, symbol P); type: in vivo, common chickweed (Stellaria media); settings: amount of applied herbicide 320 g/ha
Summary of the method: as §1

Italian ryegrass [11] = assay: Test Example 4: herbicidal effect by soil treatment (Table 19, symbol K); type: in vivo, Italian ryegrass (Lolium multiflorum); settings: amount of applied herbicide 320 g/ha
Summary of the method: as §1

late watergrass = assay: Test Example 1: herbicidal activity, application before weed generation under submerged conditions (Table 16, symbol A); type: in vivo, late watergrass (Echinochloa oryzicola); settings: amount of applied herbicide 320 g/ha
Summary of the method: as §4

southern crabgrass [12] = assay: Test Example 5: herbicidal effect by foliage application, plastic box (Table 20, symbol F); type: in vivo, southern crabgrass (Digitaria ciliaris); settings: foliage application, 320 g/ha, three weeks after application
Summary of the method: as §2

Italian ryegrass [13] = assay: Test Example 5: herbicidal effect by foliage application, plastic box (Table 20, symbol K); type: in vivo, Italian ryegrass (Lolium multiflorum); settings: foliage application, 320 g/ha, three weeks after application
Summary of the method: as §2

green foxtail [14] = assay: Test Example 5: herbicidal effect by foliage application, plastic box (Table 20, symbol G); type: in vivo, green foxtail (Setaria viridis); settings: foliage application, 320 g/ha, three weeks after application
Summary of the method: as §2

wild oat [15] = assay: Test Example 5: herbicidal effect by foliage application, plastic box (Table 20, symbol I); type: in vivo, wild oat (Avena fatua); settings: foliage application, 320 g/ha, three weeks after application
Summary of the method: as §2

southern crabgrass [16] = assay: Test Example 4: herbicidal effect by soil treatment (Table 19, symbol F); type: in vivo, southern crabgrass (Digitaria ciliaris); settings: amount of applied herbicide 320 g/ha
Summary of the method: as §1

velvetleaf [17] = assay: Test Example 4: herbicidal effect by soil treatment (Table 19, symbol M); type: in vivo, velvetleaf (Abutilon theophrasti); settings: amount of applied herbicide 320 g/ha
Summary of the method: as §1

wild oat [18] = assay: Test Example 4: herbicidal effect by soil treatment (Table 19, symbol I); type: in vivo, wild oat (Avena fatua); settings: amount of applied herbicide 320 g/ha
Summary of the method: as §1

barnyard grass [19] = assay: Test Example 3: herbicidal effect by foliage application, Wagner pot (Table 18, symbol H); type: in vivo, barnyard grass (Echinochloa crus-galli); settings: 320 g/ha
Summary of the method: as §3

barnyard grass [20] = assay: Test Example 5: herbicidal effect by foliage application, plastic box (Table 20, symbol H); type: in vivo, barnyard grass (Echinochloa crus-galli); settings: foliage application, 320 g/ha, three weeks after application
Summary of the method: as §2

green foxtail [21] = assay: Test Example 4: herbicidal effect by soil treatment (Table 19, symbol G); type: in vivo, green foxtail (Setaria viridis); settings: amount of applied herbicide 320 g/ha
Summary of the method: as §1

rice flat sedge = assay: Test Example 3: herbicidal effect by foliage application, Wagner pot (Table 18, symbol E); type: in vivo, rice flat sedge (Cyperus iria); settings: 320 g/ha
Summary of the method: as §3

Japanese bulrush = assay: Test Example 1: herbicidal activity, application before weed generation under submerged conditions (Table 16, symbol B); type: in vivo, Japanese bulrush (Schoenoplectus juncoides); settings: amount of applied herbicide 320 g/ha
Summary of the method: as §4

Compound | N: redroot pigweed, herbicidal effect grade (redroot pigweed) | H: barnyard grass, herbicidal effect grade (barnyard grass [1]) | herbicidal effect on blackgrass (J) (blackgrass [2]) | J: blackgrass, herbicidal effect grade (blackgrass [3]) | herbicidal effect on persian speedwell (R) (persian speedwell [4]) | herbicidal effect on velvetleaf (M) (velvetleaf [5]) | R: persian speedwell, herbicidal effect grade (persian speedwell [6]) | herbicidal effect on Chinese sprangletop (D) (Chinese sprangletop) | O: lambsquarters, herbicidal effect grade (lambsquarters [7]) | herbicidal effect on windgrass (L) (windgrass [8]) | Herbicidal effect, C: oval-leafed pondweed (oval-leafed pondweed) | herbicidal effect on lambsquarters (O) (lambsquarters [9]) | L: windgrass, herbicidal effect grade (windgrass [10]) | P: chickweed, herbicidal effect grade (chickweed) | K: Italian ryegrass, herbicidal effect grade (Italian ryegrass [11]) | Herbicidal effect, A: late watergrass (late watergrass) | herbicidal effect on southern crabgrass (F) (southern crabgrass [12]) | herbicidal effect on Italian ryegrass (K) (Italian ryegrass [13]) | herbicidal effect on green foxtail (G) (green foxtail [14]) | herbicidal effect on wild oat (I) (wild oat [15]) | further results
CCOc1cc(F)ccc1-c1sc2cc(Cl)c(Cl)cc2c1-c1c(O)c(C)nn(C)c1=O [5-053] | 3 (Herbicidal rate of 40% or more and less than 70%) | 0 (Herbicidal rate of 5% or less (almost no effect)) | 0 (Herbicidal rate of 5% or less (almost no effect)) | 0 (Herbicidal rate of 5% or less (almost no effect)) | 5 (Herbicidal rate of 90% or more (almost completely withered)) | 5 (Herbicidal rate of 90% or more (almost completely withered)) | 1 (Herbicidal rate of 5% or more and less than 20%) | 3 (Herbicidal rate of 40% or more and less than 70%) | 0 (Herbicidal rate of 5% or less (almost no effect)) | 3 (Herbicidal rate of 40% or more and less than 70%) | 0 (Herbicidal rate of 5% or less (almost no effect)) | 3 (Herbicidal rate of 40% or more and less than 70%) | 0 (Herbicidal rate of 5% or less (almost no effect)) | 0 (Herbicidal rate of 5% or less (almost no effect)) | 0 (Herbicidal rate of 5% or less (almost no effect)) | 0 (Herbicidal rate of 5% or less (almost no effect)) | 3 (Herbicidal rate of 40% or more and less than 70%) | 0 (Herbicidal rate of 5% or less (almost no effect)) | 4 (Herbicidal rate of 70% or more and less than 90%) | 0 (Herbicidal rate of 5% or less (almost no effect)) | F: southern crabgrass, herbicidal effect grade (southern crabgrass [16]): 0 (Herbicidal rate of 5% or less (almost no effect)); M: velvetleaf, herbicidal effect grade (velvetleaf [17]): 0 (Herbicidal rate of 5% or less (almost no effect)); I: wild oat, herbicidal effect grade (wild oat [18]): 0 (Herbicidal rate of 5% or less (almost no effect)); herbicidal effect on barnyard grass (H) (barnyard grass [19]): 3 (Herbicidal rate of 40% or more and less than 70%); herbicidal effect on barnyard grass (H) (barnyard grass [20]): 1 (Herbicidal rate of 5% or more and less than 20%); G: green foxtail, herbicidal effect grade (green foxtail [21]): 0 (Herbicidal rate of 5% or less (almost no effect)); herbicidal effect on rice flat sedge (E) (rice flat sedge): 5 (Herbicidal rate of 90% or more (almost completely withered)); Herbicidal effect, B: Japanese bulrush (Japanese bulrush): 3 (Herbicidal rate of 40% or more and less than 70%)
CCCC(=O)Oc1c(C)nn(C)c(=O)c1-c1c(-c2ccccc2OC)sc2cc(OC)c(Cl)cc12 [5-069] | 2 (Herbicidal rate of 20% or more and less than 40%) | 0 (Herbicidal rate of 5% or less (almost no effect)) | 0 (Herbicidal rate of 5% or less (almost no effect)) | 0 (Herbicidal rate of 5% or less (almost no effect)) | 0 (Herbicidal rate of 5% or less (almost no effect)) | 3 (Herbicidal rate of 40% or more and less than 70%) | 0 (Herbicidal rate of 5% or less (almost no effect)) | 0 (Herbicidal rate of 5% or less (almost no effect)) | 0 (Herbicidal rate of 5% or less (almost no effect)) | 2 (Herbicidal rate of 20% or more and less than 40%) | 0 (Herbicidal rate of 5% or less (almost no effect)) | 3 (Herbicidal rate of 40% or more and less than 70%) | 0 (Herbicidal rate of 5% or less (almost no effect)) | 0 (Herbicidal rate of 5% or less (almost no effect)) | 0 (Herbicidal rate of 5% or less (almost no effect)) | 3 (Herbicidal rate of 40% or more and less than 70%) | 4 (Herbicidal rate of 70% or more and less than 90%) | 0 (Herbicidal rate of 5% or less (almost no effect)) | 3 (Herbicidal rate of 40% or more and less than 70%) | 0 (Herbicidal rate of 5% or less (almost no effect)) | F: southern crabgrass, herbicidal effect grade (southern crabgrass [16]): 0 (Herbicidal rate of 5% or less (almost no effect)); M: velvetleaf, herbicidal effect grade (velvetleaf [17]): 0 (Herbicidal rate of 5% or less (almost no effect)); I: wild oat, herbicidal effect grade (wild oat [18]): 0 (Herbicidal rate of 5% or less (almost no effect)); herbicidal effect on barnyard grass (H) (barnyard grass [19]): 4 (Herbicidal rate of 70% or more and less than 90%); herbicidal effect on barnyard grass (H) (barnyard grass [20]): 3 (Herbicidal rate of 40% or more and less than 70%); G: green foxtail, herbicidal effect grade (green foxtail [21]): 0 (Herbicidal rate of 5% or less (almost no effect)); herbicidal effect on rice flat sedge (E) (rice flat sedge): 0 (Herbicidal rate of 5% or less (almost no effect)); Herbicidal effect, B: Japanese bulrush (Japanese bulrush): 1 (Herbicidal rate of 5% or more and less than 20%)
